Experimental data as given in patent publication US20260217673A1, “NOVEL COMPOUND AS RON INHIBITOR” (LG CHEM, LTD., priority 2022, published 2026).

How the values were obtained:
cMET = cMET (Homo sapiens, UniProt P08581); assay: MET (cMET) enzyme inhibitory activity, TR-FRET kinase assay; format: biochemical; conditions: cMET protein, TK peptide substrate
Summary of the method: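 cMET diluted to 2 nM was preincubated 20–30 min at room temperature with compound (10-point 3-fold series from 1 mM DMSO stock). The reaction was started with TK peptide/ATP substrate mix prepared at 2× final (5 μM peptide, 10 mM ATP), run 60 min at room temperature in HEPES pH 7.4 buffer with MnCl2/MgCl2, then EDTA-stopped. Europium anti-phosphotyrosine TR-FRET (ex 340, em 620/665 nm) gave IC50.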

RON = RON (Homo sapiens, UniProt Q04912); assay: RON inhibitory activity, TR-FRET kinase assay; format: biochemical; conditions: RON protein, ULight-labeled Poly GT substrate
RON, sequence (Q04912 25-1400, species assumed): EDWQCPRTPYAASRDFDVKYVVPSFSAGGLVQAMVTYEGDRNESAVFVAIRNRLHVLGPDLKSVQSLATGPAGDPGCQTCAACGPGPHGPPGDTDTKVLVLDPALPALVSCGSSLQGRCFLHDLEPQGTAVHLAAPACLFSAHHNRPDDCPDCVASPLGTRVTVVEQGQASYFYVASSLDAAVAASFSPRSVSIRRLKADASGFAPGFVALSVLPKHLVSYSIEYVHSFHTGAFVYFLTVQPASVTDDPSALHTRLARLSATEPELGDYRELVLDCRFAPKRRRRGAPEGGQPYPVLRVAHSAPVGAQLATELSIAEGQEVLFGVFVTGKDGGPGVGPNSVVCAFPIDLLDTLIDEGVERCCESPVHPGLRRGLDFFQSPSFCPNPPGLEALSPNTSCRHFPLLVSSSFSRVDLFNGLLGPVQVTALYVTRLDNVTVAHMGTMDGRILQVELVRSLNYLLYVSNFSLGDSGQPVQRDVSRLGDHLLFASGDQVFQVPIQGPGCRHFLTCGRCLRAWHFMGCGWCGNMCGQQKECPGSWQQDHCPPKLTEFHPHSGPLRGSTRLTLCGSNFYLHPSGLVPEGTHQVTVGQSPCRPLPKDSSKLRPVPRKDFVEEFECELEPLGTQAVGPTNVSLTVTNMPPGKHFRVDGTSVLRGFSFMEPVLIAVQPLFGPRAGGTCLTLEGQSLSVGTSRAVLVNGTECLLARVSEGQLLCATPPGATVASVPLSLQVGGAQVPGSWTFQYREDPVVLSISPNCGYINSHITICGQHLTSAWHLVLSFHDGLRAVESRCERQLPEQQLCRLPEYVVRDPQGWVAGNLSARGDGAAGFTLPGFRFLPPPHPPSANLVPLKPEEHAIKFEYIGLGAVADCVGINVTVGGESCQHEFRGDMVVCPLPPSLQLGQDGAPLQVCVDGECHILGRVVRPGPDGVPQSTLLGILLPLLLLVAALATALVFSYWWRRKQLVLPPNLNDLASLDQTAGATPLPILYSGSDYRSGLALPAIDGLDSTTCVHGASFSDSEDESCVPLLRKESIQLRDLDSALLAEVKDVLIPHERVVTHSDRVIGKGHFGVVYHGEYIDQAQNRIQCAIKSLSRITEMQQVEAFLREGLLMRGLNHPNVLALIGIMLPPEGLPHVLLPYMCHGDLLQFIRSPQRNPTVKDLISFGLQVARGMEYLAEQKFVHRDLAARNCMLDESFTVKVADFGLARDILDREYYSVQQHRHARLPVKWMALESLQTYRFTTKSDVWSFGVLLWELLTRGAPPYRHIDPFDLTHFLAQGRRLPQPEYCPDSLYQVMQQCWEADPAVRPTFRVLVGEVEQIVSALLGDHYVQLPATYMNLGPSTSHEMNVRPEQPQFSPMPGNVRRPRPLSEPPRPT
Summary of the method: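 RON was preincubated with compound for 20-30 min at room temperature in HEPES buffer (pH 7.4) with MgCl2 and DTT. Phosphorylation of ULight-Poly GT with ATP ran 60 min before EDTA stop. Europium anti-phosphotyrosine TR-FRET (ex 340, em 620/665 nm) was read and IC50 derived from 10-point 3-fold dilutions.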

cMET, sequence (P08581 25-1390): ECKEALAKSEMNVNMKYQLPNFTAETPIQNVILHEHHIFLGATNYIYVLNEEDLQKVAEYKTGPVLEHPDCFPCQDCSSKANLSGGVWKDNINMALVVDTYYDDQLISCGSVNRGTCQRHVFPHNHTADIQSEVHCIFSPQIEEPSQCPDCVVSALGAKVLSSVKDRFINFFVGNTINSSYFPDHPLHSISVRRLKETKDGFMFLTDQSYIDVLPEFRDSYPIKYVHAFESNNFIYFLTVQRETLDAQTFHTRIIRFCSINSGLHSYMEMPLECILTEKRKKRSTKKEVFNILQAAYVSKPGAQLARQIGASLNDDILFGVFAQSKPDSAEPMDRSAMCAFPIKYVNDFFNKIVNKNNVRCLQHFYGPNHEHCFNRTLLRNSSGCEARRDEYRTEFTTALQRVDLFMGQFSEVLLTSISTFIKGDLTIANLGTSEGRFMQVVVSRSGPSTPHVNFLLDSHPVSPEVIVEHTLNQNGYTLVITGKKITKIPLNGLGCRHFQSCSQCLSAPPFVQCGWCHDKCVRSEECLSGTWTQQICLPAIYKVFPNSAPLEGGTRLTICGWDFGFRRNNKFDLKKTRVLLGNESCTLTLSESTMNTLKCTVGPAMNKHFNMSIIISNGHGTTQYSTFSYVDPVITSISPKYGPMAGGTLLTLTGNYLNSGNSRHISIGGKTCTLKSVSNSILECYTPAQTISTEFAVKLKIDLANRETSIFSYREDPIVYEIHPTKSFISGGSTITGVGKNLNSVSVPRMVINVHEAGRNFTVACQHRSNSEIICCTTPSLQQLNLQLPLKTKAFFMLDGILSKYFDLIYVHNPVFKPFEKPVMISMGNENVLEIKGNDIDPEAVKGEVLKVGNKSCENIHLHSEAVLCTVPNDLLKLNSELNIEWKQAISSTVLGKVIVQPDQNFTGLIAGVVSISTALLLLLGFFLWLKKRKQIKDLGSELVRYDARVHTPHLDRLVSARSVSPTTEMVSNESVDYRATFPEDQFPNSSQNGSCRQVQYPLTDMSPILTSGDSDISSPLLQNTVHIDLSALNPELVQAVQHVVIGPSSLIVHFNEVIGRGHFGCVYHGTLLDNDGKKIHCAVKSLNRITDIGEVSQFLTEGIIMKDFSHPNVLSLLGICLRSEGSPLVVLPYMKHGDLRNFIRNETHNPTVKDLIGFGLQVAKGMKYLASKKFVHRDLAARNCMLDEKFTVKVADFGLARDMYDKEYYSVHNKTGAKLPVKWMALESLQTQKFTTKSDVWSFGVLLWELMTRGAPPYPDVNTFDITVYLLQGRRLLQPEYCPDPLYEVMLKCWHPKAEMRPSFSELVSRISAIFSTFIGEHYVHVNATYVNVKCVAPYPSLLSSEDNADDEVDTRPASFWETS

Row | IC50 (cMET) | IC50 (RON) | Compound
1 | 500 to 5000 nM | < 50 nM | CC(C)c1c(Oc2c(F)cc(NC(=O)c3cnn(-c4ncccn4)c3C(F)(F)F)cc2F)ccnc1N [Example 45, N-(4-((2-amino-3-isopropylpyridin-4-yl)oxy)-3,5-difluorophenyl)-1-(pyrimidin-2-yl)-5-(trifluoromethyl)-1H-pyrazole-4-carboxamide]
2 | > 5000 nM | < 50 nM | Nc1nccc(Oc2c(F)cc(NC(=O)c3cnn(-c4ccccc4)c3C(F)(F)F)cc2F)c1Cl [Example 1, N-(4-((2-amino-3-chloropyridin-4-yl)oxy)-3,5-difluorophenyl)-1-phenyl-5-(trifluoromethyl)-1H-pyrazole-4-carboxamide]
